According to the NIST ThermoML archive (doi:10.1016/j.jct.2015.06.024):

Experiment: mn = molality of the nth substance listed, in mol/kg
Conditions: 84.5 kPa, Liquid; for speed of sound: Frequency=3 MHz, Sing-around technique in a fixed-path interferometer; for mass density: Vibrating tube method

CCCO [propan-1-ol] + O
Conditions | mass density, 288.15 K [kg/m3] | mass density, 293.15 K [kg/m3] | mass density, 298.15 K [kg/m3] | mass density, 303.15 K [kg/m3] | mass density, 308.15 K [kg/m3] | speed of sound, 288.15 K [m/s] | speed of sound, 293.15 K [m/s] | speed of sound, 298.15 K [m/s] | speed of sound, 303.15 K [m/s] | speed of sound, 308.15 K [m/s]
m1 = 0.01666 | 998.928 | 998.029 | 996.868 | 995.468 | 993.851 | 1467.6 | 1483.5 | 1497.7 | 1509.9 | 1520.5
m1 = 0.03333 | 998.757 | 997.859 | 996.698 | 995.295 | 993.677 | 1468.6 | 1484.5 | 1498.5 | 1510.7 | 1521.3
m1 = 0.0494 | 998.594 | 997.697 | 996.534 | 995.132 | 993.506 | 1469.5 | 1485.4 | 1499.3 | 1511.5 | 1521.9
m1 = 0.06674 | 998.419 | 997.52 | 996.356 | 994.954 | 993.328 | 1470.6 | 1486.4 | 1500.3 | 1512.3 | 1522.7
m1 = 0.08313 | 998.254 | 997.355 | 996.19 | 994.787 | 993.156 | 1471.7 | 1487.3 | 1501.1 | 1513.1 | 1523.3
m1 = 0.1002 | 998.081 | 997.18 | 996.013 | 994.609 | 992.983 | 1472.7 | 1488.3 | 1502 | 1513.8 | 1524
m1 = 0.134 | 997.747 | 996.843 | 995.676 | 994.267 | 992.634 | 1474.8 | 1490.1 | 1503.6 | 1515.4 | 1525.4
m1 = 0.1662 | 997.429 | 996.526 | 995.356 | 993.945 | 992.305 | 1476.8 | 1491.9 | 1505.3 | 1516.9 | 1526.8

CCCCO [butan-1-ol] + O
Conditions | mass density, 288.15 K [kg/m3] | mass density, 293.15 K [kg/m3] | mass density, 298.15 K [kg/m3] | mass density, 303.15 K [kg/m3] | mass density, 308.15 K [kg/m3] | speed of sound, 288.15 K [m/s] | speed of sound, 293.15 K [m/s] | speed of sound, 298.15 K [m/s] | speed of sound, 303.15 K [m/s] | speed of sound, 308.15 K [m/s]
m1 = 0.01342 | 998.939 | 998.039 | 996.876 | 995.476 | 993.859 | 1467.6 | 1483.6 | 1497.7 | 1510 | 1520.6
m1 = 0.02701 | 998.774 | 997.873 | 996.708 | 995.306 | 993.686 | 1468.7 | 1484.7 | 1498.7 | 1510.9 | 1521.3
m1 = 0.04053 | 998.614 | 997.712 | 996.547 | 995.143 | 993.508 | 1469.9 | 1485.7 | 1499.6 | 1511.7 | 1522.2
m1 = 0.05431 | 998.455 | 997.552 | 996.384 | 994.976 | 993.352 | 1471 | 1486.7 | 1500.5 | 1512.5 | 1522.9
m1 = 0.06771 | 998.296 | 997.389 | 996.218 | 994.809 | 993.182 | 1472.1 | 1487.7 | 1501.4 | 1513.3 | 1523.6
m1 = 0.08132 | 998.137 | 997.231 | 996.058 | 994.647 | 992.992 | 1473.1 | 1488.6 | 1502.3 | 1514.1 | 1524.4
m1 = 0.1063 | 997.846 | 996.934 | 995.757 | 994.341 | 992.707 | 1475.1 | 1490.5 | 1504 | 1515.7 | 1525.7
m1 = 0.1358 | 997.518 | 996.602 | 995.417 | 993.998 | 992.357 | 1477.4 | 1492.5 | 1505.8 | 1517.4 | 1527.2

CCO [ethanol] + O
Conditions | mass density, 288.15 K [kg/m3] | mass density, 293.15 K [kg/m3] | mass density, 298.15 K [kg/m3] | mass density, 303.15 K [kg/m3] | mass density, 308.15 K [kg/m3] | speed of sound, 288.15 K [m/s] | speed of sound, 293.15 K [m/s] | speed of sound, 298.15 K [m/s] | speed of sound, 303.15 K [m/s] | speed of sound, 308.15 K [m/s]
m1 = 0.02159 | 998.9 | 998.003 | 996.845 | 995.446 | 993.829 | 1467.4 | 1483.4 | 1497.5 | 1509.8 | 1520.4
m1 = 0.04347 | 998.707 | 997.81 | 996.654 | 995.257 | 993.639 | 1468.2 | 1484.2 | 1498.2 | 1510.5 | 1521
m1 = 0.06495 | 998.526 | 997.632 | 996.474 | 995.076 | 993.46 | 1469.1 | 1485 | 1498.9 | 1511.1 | 1521.6
m1 = 0.08646 | 998.318 | 997.424 | 996.265 | 994.87 | 993.243 | 1470 | 1485.8 | 1499.7 | 1511.7 | 1522.2
m1 = 0.1087 | 998.132 | 997.24 | 996.081 | 994.683 | 993.05 | 1470.8 | 1486.5 | 1500.4 | 1512.4 | 1522.8
m1 = 0.1306 | 997.942 | 997.051 | 995.892 | 994.494 | 992.873 | 1471.7 | 1487.3 | 1501.1 | 1513 | 1523.3
m1 = 0.1749 | 997.562 | 996.671 | 995.508 | 994.111 | 992.498 | 1473.4 | 1488.9 | 1502.5 | 1514.2 | 1524.4
m1 = 0.2188 | 997.195 | 996.303 | 995.144 | 993.747 | 992.123 | 1475 | 1490.4 | 1503.8 | 1515.5 | 1525.5

O=C(O)[C@@H]1CCCN1 [L-proline] + O
Conditions | mass density, 288.15 K [kg/m3] | mass density, 293.15 K [kg/m3] | mass density, 298.15 K [kg/m3] | mass density, 303.15 K [kg/m3] | mass density, 308.15 K [kg/m3] | speed of sound, 288.15 K [m/s] | speed of sound, 293.15 K [m/s] | speed of sound, 298.15 K [m/s] | speed of sound, 303.15 K [m/s] | speed of sound, 308.15 K [m/s]
m1 = 0.04355 | 1000.55 | 999.631 | 998.453 | 997.041 | 995.413 | 1470.3 | 1486.1 | 1500.1 | 1512.3 | 1522.8
m1 = 0.05237 | 1000.84 | 999.916 | 998.737 | 997.322 | 995.693 | 1471 | 1486.8 | 1500.8 | 1512.9 | 1523.4
m1 = 0.06122 | 1001.13 | 1000.21 | 999.025 | 997.607 | 995.975 | 1471.7 | 1487.6 | 1501.5 | 1513.6 | 1524
m1 = 0.06959 | 1001.41 | 1000.48 | 999.295 | 997.877 | 996.241 | 1472.5 | 1488.2 | 1502.1 | 1514.2 | 1524.6
m1 = 0.07882 | 1001.71 | 1000.78 | 999.588 | 998.167 | 996.529 | 1473.2 | 1488.9 | 1502.8 | 1514.8 | 1525.2
m1 = 0.08768 | 1002 | 1001.07 | 999.877 | 998.452 | 996.813 | 1474 | 1489.6 | 1503.5 | 1515.4 | 1525.8
m1 = 0.09661 | 1002.3 | 1001.36 | 1000.16 | 998.734 | 997.093 | 1474.7 | 1490.3 | 1504.1 | 1516.1 | 1526.4
m1 = 0.1056 | 1002.59 | 1001.65 | 1000.45 | 999.02 | 997.377 | 1475.4 | 1491 | 1504.7 | 1516.7 | 1526.9
m1 = 0.1234 | 1003.17 | 1002.23 | 1001.02 | 999.585 | 997.937 | 1476.8 | 1492.3 | 1506 | 1517.9 | 1528.1
m1 = 0.1414 | 1003.76 | 1002.8 | 1001.59 | 1000.15 | 998.498 | 1478.3 | 1493.7 | 1507.3 | 1519.1 | 1529.3
m1 = 0.1591 | 1004.34 | 1003.37 | 1002.15 | 1000.71 | 999.051 | 1479.8 | 1495.2 | 1508.7 | 1520.5 | 1530.6
m1 = 0.1775 | 1004.93 | 1003.96 | 1002.74 | 1001.28 | 999.622 | 1481.3 | 1496.6 | 1510.1 | 1521.8 | 1531.8
m1 = 0.1955 | 1005.51 | 1004.53 | 1003.3 | 1001.85 | 1000.18 | 1482.8 | 1498 | 1511.4 | 1523 | 1533
m1 = 0.2134 | 1006.09 | 1005.1 | 1003.87 | 1002.4 | 1000.73 | 1484.2 | 1499.4 | 1512.6 | 1524.2 | 1534.1
